Measurements: patent US4985412A, “Phosphoric acid ester, process for preparing the same, and detergent composition containing the same” (Kao Corporation, priority 1987, dated 1991)

What was measured:
[1] = Foaming capability (Reverse Stirring Method); format: physicochemical; details: for Foaming capability (Foam volume): reverse stirring, 40 °C, 1,000 rpm, 30 sec (reversed at every 5 sec), measured after 10 sec
Protocol: * The conditions of the reverse stirring
Rotation speed: 1,000 rpm
Stirring time: 30 sec. (reversed at every 5 sec.)
Measurement: performed after the test sample was left for 10 sec.

Krafft point = format: physicochemical
[2] = comparison with sodium dodecyl phosphate, in words

In the case of `CCCCCCCCCCCCOP(=O)([O-])OCC(O)CO.[Na+]` (centres unmarked) [sodium dodecyl 2,3-dihydroxypropyl phosphate], the “Foaming capability (Foam volume)” value [1] is reported as 240 mL and the Krafft point (Krafft point) is reported as under 0 °C.
In the case of `CCCCCCCCCCCCOP(=O)(O)OCC(O)CN(C)CC(=O)O` (centres unmarked) [Example 1, sodium dodecyl 2-hydroxy-3-N-carboxymethyl-N-methylammoniopropyl phosphate], the “Foaming capability compared with sodium dodecyl phosphate” value [1, 2] is reported as “almost the same foaming capability”, the “Foaming capability (Foam volume)” value [1] is reported as 250 mL and the Krafft point (Krafft point) is reported as under 0 °C. For the same compound, the “Krafft point compared with sodium dodecyl phosphate” value (Krafft point; [2]) was “extremely lower Krafft point”.
In the case of `CCCCCCCCCCCCOP(=O)(O)O` [1-sodium dodecyl phosphate], the “Foaming capability (Foam volume)” value [1] is reported as 260 mL and the Krafft point (Krafft point) is reported as 32 °C.
